Experimental data as given in patent publication US6576592B1, “Herbicide composition” (Sumitomo Chemical Company, Limited, priority 1999, dated 2003).
Counter-ions that a name gives are not always drawn.

Experiments:
yellow nutsedge = assay: Test Example 1: foliar treatment of pot-grown yellow nutsedge in greenhouse, herbicidal activity; type: in vivo, yellow nutsedge (Cyperus esculentus); settings: sprayed over plants grown 26 days, examined 10 days after application, index 0 to 10
Excerpt: The values, “7”, “8”, “9”, and “10” of the herbicidal effect mean a excellent herbicidal effect.
(§1) Plastic pots each having a diameter of 11 cm and a depth of 8 cm were filled with upland soil, and then buried tubers of yellow nutsedge. And test plants were given 26 days to grow in greenhouse.An emulsifiable concentrate of compound A which had been obtained by well mixing 5 parts of compound A, 6 parts of Sorpol 3005X (produced by Toho Chemical Industry, Co., Ltd.) and 89 parts of xylene, a formulated glyphosate product (trade name: Roundup; seller, Monsanto Japan Limited), and a mixture of the emulsifiable concentrate of compound A and the formulated glyphosate product were independently diluted in their prescribed amounts with water. Each dilution was uniformly sprayed over the plants with a small sprayer, and then corn was further seeded. After the application the test plants were grown in the greenhouse for further 10 days and then, herbicidal activity and phytotoxicity to corn were examined.

corn = assay: Test Example 1: phytotoxicity to corn seeded after application; type: in vivo; parameters: key: “no harm” means that the phytotoxicity was unrecognizable or almost unrecognized; “small” means that a slight degree of phytotoxicity was recognized; “medium” means that a medium degree of phytotoxicity was recognized; “large” means that a large degree of phytotoxicity was recognized; settings: corn seeded after spraying, examined after 10 days
Protocol: The phytotoxicity is evaluated like these, “no harm” means that the phytotoxicity was unrecognizable or almost unrecognized, “small” means that a slight degree of phytotoxicity was recognized, “medium” means that a medium degree of phytotoxicity was recognized, and “large” means that a large degree of phytotoxicity was recognized.
as §1

Structure (SMILES) | Herbicidal activity Yellow nutsedge (yellow nutsedge; dosage 120 g/ha) | Phytotoxicity Corn (corn; dosage 120 g/ha) | Herbicidal activity Yellow nutsedge (yellow nutsedge; dosage 560 g/ha) | Phytotoxicity Corn (corn; dosage 560 g/ha)
COC(=O)C(C)Oc1cc(-n2c(=O)cc(C(F)(F)F)n(C)c2=O)c(F)cc1Cl (stereo not shown) [Compound A, methyl 2-[2-chloro-4-fluoro-5-{3-methyl-2,6-dioxo-4-(trifluoromethyl)-1,2,3,6-tetrahydropyrimidin-1-yl}phenoxy]propionate] | 4 | no harm | – | –
O=C(O)CNCP(=O)(O)O [Glyphosate isopropylamine salt, N-(phosphonomethyl)glycine] | – | – | 1 | no harm
